Converted amounts (≈) assume the structure as drawn.

These results are taken from patent US4205163A, “Tylosin derivatives” (Sanraku-Ocean Co., Ltd., priority 1977, dated 1980).

Assay in all cases: antimicrobial activity, broth dilution method
What all share (type): cell-based
In general terms: Dilution methods test growth across graded concentrations, often in twofold steps.

Test [1] deals with Bacillus cereus ATCC 9634. As to conditions: broth dilution; for minimum inhibitory concentration (MIC): Bacillus cereus ATCC 9634; for MIC: Bacillus cereus, ATCC9634, Bacillus cereus ATCC 9634, read-out: minimum inhibitory concentration (MIC). As for the experimental part: (§1) Antimicrobial activity of the new antibiotics according to the present invention was measured on various pathogenic microorganisms by the broth dilution mehtod. Tab. […] The new antibiotics show a similar antimicrobial spectrum to that of tylosin as shown in Tab. 4. All the compounds have an excellent antimicrobial activity mainly on gram-positive bacteria. […] Test microorganisms with an asterisk mark (*) in Tab. 4 are all drug-resistant strains that were clinically isolated. More in detail, Staphylococcus aureus MS-8710 is resistant to tylosin, penicillin, tetracycline, erythromycin and leucomycin. Staphylococcus aureus MS-9931 is resistant to tylosin, penicillin, erythromycin, tetracycline, leucomycin, spiramycin and josamycin. And also Streptococcus piogenes is resistant to tylosin, erythromycin, oleandomycin and leucomycin.

For a further test, the system named is Sarcina lutea ATCC 9341. The settings on record: for minimum inhibitory concentration (MIC): Sarcina lutea ATCC 9341; for MIC: Micrococcus luteus, ATCC9341, Sarcina lutea ATCC 9341, read-out: minimum inhibitory concentration (MIC). As for the experimental part:
as §1

Test [2] deals with Staphylococcus aureus FDA-209P. As to conditions: Staphylococcus aureus FDA-209P, broth dilution; for MIC: Staphylococcus aureus, FDA209P, read-out: minimum inhibitory concentration (MIC). The protocol:
as §1

Test [3] has as its system Staphylococcus aureus MS-8710. The settings on record: for minimum inhibitory concentration (MIC): Staphylococcus aureus MS-8710, drug-resistant clinical isolate; for MIC: Staphylococcus aureus, MS8710, Staphylococcus aureus MS-8710, drug-resistant clinical isolate, read-out: minimum inhibitory concentration (MIC). The protocol: as §1
Test [4] concerns Staphylococcus aureus MS-9931. The settings on record: Staphylococcus aureus MS-9931, drug-resistant clinical isolate; for MIC: MS9931, read-out: minimum inhibitory concentration (MIC). As for the experimental part:
as §1

Test [5] relates to Staphylococcus aureus MS-9937. As to conditions: Staphylococcus aureus MS-9937, drug-resistant clinical isolate; for MIC: MS9937, read-out: minimum inhibitory concentration (MIC). The protocol: as §1
The subject of test [6] is Staphylococcus aureus SMITH. As to conditions: Staphylococcus aureus SMITH, broth dilution; for MIC: Staphylococcus aureus, read-out: minimum inhibitory concentration (MIC). As for the experimental part:
as §1

The test system of test [7] is Streptococcus pyogenes MH-771. The settings on record: for minimum inhibitory concentration (MIC): Streptococcus pyogenes MH-771, drug-resistant clinical isolate; for MIC: Streptococcus pyogenes, MH771, Streptococcus pyogenes MH-771, drug-resistant clinical isolate, read-out: minimum inhibitory concentration (MIC). As for the experimental part: as §1

On to “3-acetyl-4"-(1-imidazolyl)propionyltylosin [Compound 33]”, for which the “minimum inhibitory concentration (MIC)” value in test [1] was found to be 1.56 µg/mL; with Sarcina lutea ATCC 9341 it was 0.78 µg/mL; in test [2], 1.56 µg/mL; in test [3], 25 µg/mL; in test [4], 50 µg/mL; in test [5], 50 µg/mL. The entries for the “minimum inhibitory concentration (MIC)” value in test [6] and in test [7] were 1.56 µg/mL and 12.5 µg/mL, respectively.
On to 4"-thienylacetyltylosin [Compound 30], for which the “minimum inhibitory concentration (MIC)” value is 0.39 µg/mL in test [1]; 0.19 µg/mL with Sarcina lutea ATCC 9341; 0.39 µg/mL in test [2]; 12.5 µg/mL in test [3]; 25 µg/mL in test [4]; 25 µg/mL in test [5]. In addition, the “minimum inhibitory concentration (MIC)” value was 0.39 µg/mL in test [6] and 6.25 µg/mL in test [7].
As to `CCC1OC(=O)CC(O)C(C)C(OC2OC(C)C(OC3CC(C)(O)C(O)C(C)O3)C(N(C)C)C2OC(C)=O)C(CC=O)CC(C)C(=O)C=CC(C)=CC1COC1OC(C)C(O)C(OC)C1OC` (centres unmarked) [2'-acetyltylosin, reference compound], the MIC in test [1] was 1.56 µg/mL (≈ 1.63 µM); with Sarcina lutea ATCC 9341, 0.39 µg/mL (≈ 0.407 µM); in test [2], 1.56 µg/mL (≈ 1.63 µM); in test [3] it was greater than 200 µg/mL; in test [4] it was 200 µg/mL (≈ 209 µM); in test [5], 200 µg/mL (≈ 209 µM). For the same compound, the MIC was 1.56 µg/mL (≈ 1.63 µM) in test [6] and greater than 200 µg/mL in test [7].
Take `CCC1OC(=O)CC(O)C(C)C(OC2OC(C)C(OC3CC(C)(O)C(O)C(C)O3)C(N(C)C)C2OC(=O)CCl)C(CC=O)CC(C)C(=O)C=CC(C)=CC1COC1OC(C)C(O)C(OC)C1OC` (centres unmarked) [2'-monochloroacetyltylosin, reference compound]: the MIC was 1.56 µg/mL (≈ 1.57 µM) in test [1]; 0.39 µg/mL (≈ 0.393 µM) with Sarcina lutea ATCC 9341; 1.56 µg/mL (≈ 1.57 µM) in test [2]; greater than 200 µg/mL in test [3]; 200 µg/mL (≈ 201 µM) in test [4]; 200 µg/mL (≈ 201 µM) in test [5]. For the same compound, the MIC in test [6] is 1.56 µg/mL (≈ 1.57 µM); in test [7] it was greater than 200 µg/mL.
For the compound `CCC(=O)OC1C(OC2C(CC=O)CC(C)C(=O)C=CC(C)=CC(COC3OC(C)C(O)C(OC)C3OC)C(CC)OC(=O)CC(O)C2C)OC(C)C(OC2CC(C)(O)C(O)C(C)O2)C1N(C)C` (centres unmarked) [2'-propionyltylosin, reference compound], the MIC in test [1] is 1.56 µg/mL (≈ 1.6 µM); with Sarcina lutea ATCC 9341 it was 0.39 µg/mL (≈ 0.401 µM); in test [2], 1.56 µg/mL (≈ 1.6 µM); in test [3], greater than 200 µg/mL; in test [4], 200 µg/mL (≈ 206 µM); in test [5], 200 µg/mL (≈ 206 µM). Besides, the MIC in test [6] is 1.56 µg/mL (≈ 1.6 µM); in test [7], greater than 200 µg/mL.
With `CCC1OC(=O)CC(OC(C)=O)C(C)C(OC2OC(C)C(OC3CC(C)(O)C(O)C(C)O3)C(N(C)C)C2OC(C)=O)C(CC=O)CC(C)C(=O)C=CC(C)=CC1COC1OC(C)C(O)C(OC)C1OC` (centres unmarked) [3,2'-diacetyltylosin, reference compound], the MIC in test [1] is 1.56 µg/mL (≈ 1.56 µM); in the test on Sarcina lutea ATCC 9341, 0.39 µg/mL (≈ 0.39 µM); in test [2] it was 1.56 µg/mL (≈ 1.56 µM); in test [3], greater than 200 µg/mL; in test [4], 200 µg/mL (≈ 200 µM); in test [5], 200 µg/mL (≈ 200 µM). Further, the MIC was 1.56 µg/mL (≈ 1.56 µM) in test [6] and greater than 200 µg/mL in test [7].
Regarding `CCC1OC(=O)CC(OC(C)=O)C(C)C(OC2OC(C)C(OC3CC(C)(O)C(OC(=O)C(O)c4ccccc4)C(C)O3)C(N(C)C)C2O)C(CC=O)CC(C)C(=O)C=CC(C)=CC1COC1OC(C)C(O)C(OC)C1OC` [Compound 18, 3-acetyl-4"-L-(α-hydroxyphenylacetyl)tylosin], the MIC in test [1] amounted to 0.78 µg/mL (≈ 0.714 µM); in the test on Sarcina lutea ATCC 9341 it was 0.39 µg/mL (≈ 0.357 µM); in test [2] it was 0.78 µg/mL (≈ 0.714 µM); in test [3], 25 µg/mL (≈ 22.9 µM); in test [6] it was 0.78 µg/mL (≈ 0.714 µM).
